Like-named read-outs stand apart in the source and are kept apart here.

Common to all, as to assay: Example 1: quantification of 4M3H on cotton fabric with 14-methylhexadecanoic acid
One assay relates to M. osloensis NCIMB10693. Type of assay: cell-based, Moraxella osloensis. The protocol: (§1) 10 mL of methanol was added to the towel that had been left to stand still for 24 hours, and 1 mL of the methanol was mixed with 1 mL of ADAM (9-anthrydiazomethanene, manufactured by Funakoshi Corp., 0.1 w/v %). The mixture was left to stand for 60 minutes at room temperature, and thus derivatization was carried out.
(§2) Thereafter, 10 μL of the solution was analyzed by using LC-FL (liquid chromatography apparatus: HITACHI ELITE LaChrom (trade name, manufactured by Hitachi, Ltd.), column: Lichrosphere 100 RP-8(e) (trade name, manufactured by Agilent Technologies, Inc., 5 μm×125 mm×4 mmφ), column temperature: 40° C., eluent a mixed solution of acetonitrile/water=7/3 (volume ratio), flow rate: 1.0 mL/min, detector: excitation wavelength (365 nm), measurement wavelength (412 nm)), and thereby quantification of 4M3H thus produced was carried out. In regard to the amount of production of 4M3H, a sample which produced 4M3H in an amount of more than 1 μg was rated as “[…]”; a sample which produced 4M3H in an amount of more than 0.1 μg and 1 μg or less was rated as “∘”; a sample which produced 4M3H in an amount of more than 0 μg and 0.1 μg or less was rated as “Δ”; and a sample in which no 4M3H was detected was rated as “x”.
(§3) One platinum loop of each of Moraxella osloensis NCIMB10693, Moraxella sp. 4-1, Psychrobacter pacificensis NBRC103191, Psychrobacter glacincola NCIMB101053, Pseudomonas alcaligenes No. 41, Acinetobacter calcoaceticus HH2BD-49, Saccaromyces cerevisiae NBRC1661, Rhodotorula mucilaginosa NBRC0909 and Rhodotorula slooffiae 13c was inoculated into 5 mL of a SCD liquid medium (manufactured by Nihon Pharmaceutical Co., Ltd.), and the microbial cells were subjected to shaking culture (160 rpm) at 35° C. for 24 hours. The microbial cells obtained after culture were centrifuged (8000×g, 10 minutes), the supernatant was removed, and then the microbial cells were suspended in 5 mL of physiological saline. The suspension was centrifuged again (8000×g, 10 minutes), subsequently the supernatant was removed, and a microbial suspension was prepared by using physiological saline such that the OD600 would be 0.1.
(§4) Furthermore, 0.1 mL each of 10-ppm or 100-ppm aqueous solutions of the compounds shown in the following Table 6 was applied on the fabric described above. As a control, a fabric on which sterilized water was applied instead of the compounds described below was also prepared.
(§5) On a plain-woven cotton fabric prepared as described above, 0.1 mL each of the various microbial suspensions was inoculated, and the samples were left to stand still under humidified conditions at 37° C. for 24 hours and were subjected to an evaluation such as described below.
(§6) Quantification of 4M3H was carried out by the same method as that used in Test Example 3, and by taking as a reference the 4M3H production amount of a sample on which sterilized water was applied as a test substance, the 4M3H production amounts in the case of applying other test substances were evaluated on the basis of the following criteria. • A: (4M3H production amount in the case of applying a test substance)<( 1/100 of the 4M3H production amount in the case of applying sterilized water) • B: ( 1/100 of the 4M3H production amount in the case of applying sterilized water)≦(4M3H production amount in the case of applying a test substance)<( 1/10 of the 4M3H production amount in the case of applying sterilized water) • C: ( 1/10 of the 4M3H production amount in the case of applying sterilized water)≦(4M3H production amount in the case of applying a test substance)<(4M3H production amount in the case of applying sterilized water) • D: (4M3H production amount in the case of applying sterilized water)≦(4M3H production amount in the case of applying a test substance)

The next assay has as its system Moraxella sp. 4-1. The assay is classed as cell-based. To be noted: 37° C., 24 hours, vs sterilized water. The protocol:
as §1, §2, §3, §4, §5, §6

For assay [1], the system named is P. pacificensis NBRC103191. Type of assay: cell-based, Psychrobacter pacificensis. To be noted: 37° C., 24 hours, vs sterilized water. The protocol:
as §1, §2, §3, §4, §5, §6

A further assay deals with P. glacincola NBRC101053. Type of assay: cell-based, Psychrobacter glacincola. To be noted: 37° C., 24 hours, vs sterilized water. The protocol: as §1, §2, §3, §4, §5, §6
For the next assay, the system named is P. alcaligenes No. 41. Type of assay: cell-based, Pseudomonas alcaligenes. To be noted: 37° C., 24 hours, vs sterilized water. As to the method:
as §1, §2, §3, §4, §5, §6

For assay [2], the system named is A. calcoaceticus HH2BD-49. The assay is classed as cell-based, Acinetobacter calcoaceticus. Conditions: 37° C., 24 hours, vs sterilized water. The protocol: as §1, §2, §3, §4, §5, §6
The next assay concerns S. cerevisiae NBRC1661. Type of assay: cell-based, Saccaromyces cerevisiae. Conditions: 37° C., 24 hours, vs sterilized water. As to the method:
as §1, §2, §3, §4, §5, §6

The test system of a further assay is R. muculaginosa NBRC0909. Type of assay: cell-based, Rhodotorula mucilaginosa. Conditions: 37° C., 24 hours, vs sterilized water. The protocol: as §1, §2, §3, §4, §5, §6
A further assay relates to R. slooffiae 13c. The assay is classed as cell-based, Rhodotorula slooffiae. To be noted: 37° C., 24 hours, vs sterilized water. The protocol:
as §1, §2, §3, §4, §5, §6

The mark [3] stands for this setting: 10 ppm test substance, M. osloensis NCIMB10693, cotton fabric with 14-methylhexadecanoic acid, 37° C., 24 hours, vs sterilized water.
Where [4] appears, read: 100 ppm test substance, M. osloensis NCIMB10693, cotton fabric with 14-methylhexadecanoic acid, 37° C., 24 hours, vs sterilized water.
Setting [5] is: Faucicola osloensis, NCIMB10693, 24 h, read-out: Production amount of 4M3H.
Where [6] appears, read: Faucicola osloensis, 100 ppm test substance, M. osloensis NCIMB10693, cotton fabric with 14-methylhexadecanoic acid, 37° C., 24 hours, vs sterilized water, read-out: Production amount of 4M3H.

As for `CN(C)c1ccc(/C([S-])=C(/[S-])c2ccccc2)cc1.CN(C)c1ccc(/C([S-])=C(/[S-])c2ccccc2)cc1.[Ni]` [Bis(4-dimethylaminodithiobenzil)nickel], the “Production amount of 4M3H” value in the assay on M. osloensis NCIMB10693 (setting [3]) is reported as “C (( 1/10 of the 4M3H production amount in the case of applying sterilized water)≦(4M3H production amount in the case of applying a test substance)<(4M3H production amount in the case of applying sterilized water))”; in the assay on M. osloensis NCIMB10693 (setting [4]) it was “A ((4M3H production amount in the case of applying a test substance)<( 1/100 of the 4M3H production amount in the case of applying sterilized water))”; with Moraxella sp. 4-1 (10 ppm test substance) it was “B (( 1/100 of the 4M3H production amount in the case of applying sterilized water)≦(4M3H production amount in the case of applying a test substance)<( 1/10 of the 4M3H production amount in the case of applying sterilized water))”; with Moraxella sp. 4-1 (100 ppm test substance), “A ((4M3H production amount in the case of applying a test substance)<( 1/100 of the 4M3H production amount in the case of applying sterilized water))”; in [1] (10 ppm test substance), “C (( 1/10 of the 4M3H production amount in the case of applying sterilized water)≦(4M3H production amount in the case of applying a test substance)<(4M3H production amount in the case of applying sterilized water))”; in [1] (100 ppm test substance), “B (( 1/100 of the 4M3H production amount in the case of applying sterilized water)≦(4M3H production amount in the case of applying a test substance)<( 1/10 of the 4M3H production amount in the case of applying sterilized water))”. For the same compound, the “Production amount of 4M3H” value in the assay on P. glacincola NBRC101053 (10 ppm test substance) is “A ((4M3H production amount in the case of applying a test substance)<( 1/100 of the 4M3H production amount in the case of applying sterilized water))”; in the assay on P. glacincola NBRC101053 (100 ppm test substance), “A ((4M3H production amount in the case of applying a test substance)<( 1/100 of the 4M3H production amount in the case of applying sterilized water))”; in the assay with P. alcaligenes No. 41 (10 ppm test substance), “C (( 1/10 of the 4M3H production amount in the case of applying sterilized water)≦(4M3H production amount in the case of applying a test substance)<(4M3H production amount in the case of applying sterilized water))”; with P. alcaligenes No. 41 (100 ppm test substance), “A ((4M3H production amount in the case of applying a test substance)<( 1/100 of the 4M3H production amount in the case of applying sterilized water))”; in assay [2] (10 ppm test substance), “B (( 1/100 of the 4M3H production amount in the case of applying sterilized water)≦(4M3H production amount in the case of applying a test substance)<( 1/10 of the 4M3H production amount in the case of applying sterilized water))”; in assay [2] (100 ppm test substance), “A ((4M3H production amount in the case of applying a test substance)<( 1/100 of the 4M3H production amount in the case of applying sterilized water))”. Besides, the “Production amount of 4M3H” value is given as “C (( 1/10 of the 4M3H production amount in the case of applying sterilized water)≦(4M3H production amount in the case of applying a test substance)<(4M3H production amount in the case of applying sterilized water))” with S. cerevisiae NBRC1661 (10 ppm test substance); “A ((4M3H production amount in the case of applying a test substance)<( 1/100 of the 4M3H production amount in the case of applying sterilized water))” in the assay with S. cerevisiae NBRC1661 (100 ppm test substance); “B (( 1/100 of the 4M3H production amount in the case of applying sterilized water)≦(4M3H production amount in the case of applying a test substance)<( 1/10 of the 4M3H production amount in the case of applying sterilized water))” in the assay on R. muculaginosa NBRC0909 (10 ppm test substance); “A ((4M3H production amount in the case of applying a test substance)<( 1/100 of the 4M3H production amount in the case of applying sterilized water))” in the assay with R. muculaginosa NBRC0909 (100 ppm test substance); “C (( 1/10 of the 4M3H production amount in the case of applying sterilized water)≦(4M3H production amount in the case of applying a test substance)<(4M3H production amount in the case of applying sterilized water))” with R. slooffiae 13c (10 ppm test substance); “A ((4M3H production amount in the case of applying a test substance)<( 1/100 of the 4M3H production amount in the case of applying sterilized water))” in the assay on R. slooffiae 13c (100 ppm test substance).

Turning to `O=C/C=C/c1ccccc1` [Cinnamic aldehyde], in the assay on M. osloensis NCIMB10693 (setting [5]), the activity at 10 ppm lay within 10 to 100% and the activity at 100 ppm was under 1%.

Regarding `CCCCCCCCCCCC[N+](C)(C)C` [Dodecyl trimethyl ammonium chloride], the activity at 100 ppm in the assay with M. osloensis NCIMB10693 (setting [5]) lay within 10 to 100%.

With `CCCCCCCCCCCCCCCC[N+](C)(C)C` [Hexadecyl trimethyl ammonium chloride], in the assay on M. osloensis NCIMB10693 (setting [5]), the activity at 100 ppm was over 100%.

With `CCCCC/C=C\C/C=C\CCCCCCCC(=O)O` [Linoleic acid], in the assay with M. osloensis NCIMB10693 (setting [6]), the activity at 100 ppm lay within 1 to 10%.

With `CC/C=C\C/C=C\C/C=C\CCCCCCCC(=O)O` [Linolenic acid], the activity at 100 ppm in the assay with M. osloensis NCIMB10693 (setting [6]) fell in the range of 1 to 10%.

`CCCCCCCCCCCCCCCC(=O)O` [Palmitic acid]: the activity at 100 ppm in the assay on M. osloensis NCIMB10693 (setting [6]) was 10 to 100%.

Take `CCCCCCCCCCCCCCCCCC(=O)O` [Stearic acid]: the activity at 100 ppm in the assay on M. osloensis NCIMB10693 (setting [6]) was 10 to 100%.

As for `CCCCCCCCCCCCCC[N+](C)(C)C` [Tetradecyl trimethyl ammonium chloride], the activity at 100 ppm in the assay with M. osloensis NCIMB10693 (setting [6]) was in the range of 10 to 100%.

Polylysine: the results for the “Production amount of 4M3H” value in the assay on M. osloensis NCIMB10693 (setting [3]) and in the assay with M. osloensis NCIMB10693 (setting [4]) were “D ((4M3H production amount in the case of applying sterilized water)≦(4M3H production amount in the case of applying a test substance))” and “C (( 1/10 of the 4M3H production amount in the case of applying sterilized water)≦(4M3H production amount in the case of applying a test substance)<(4M3H production amount in the case of applying sterilized water))”, respectively.

As for Polyoxyethylene (10) lauryl ether, in the assay on M. osloensis NCIMB10693 (setting [4]), the “Production amount of 4M3H” value is listed as “D ((4M3H production amount in the case of applying sterilized water)≦(4M3H production amount in the case of applying a test substance))”.

Take “Sodium alkylbenzene sulfonate [Sodium akylbenzene sulfonate]”: in the assay with M. osloensis NCIMB10693 (setting [4]), the “Production amount of 4M3H” value was “C (( 1/10 of the 4M3H production amount in the case of applying sterilized water)≦(4M3H production amount in the case of applying a test substance)<(4M3H production amount in the case of applying sterilized water))”.

The values are drawn from patent US20130210061A1, “Method of Screening Damp-Dry Malodor Inhibitor and Method of Evaluating Damp-Dry Malodor Inhibitor” (KAO CORPORATION, priority 2010, published 2013).
